Values of other authors as cited in US20140271831A1, “RACECADOTRIL LIQUID COMPOSITIONS” (McNeil-PPC, Inc., priority 2013, published 2014).

Settings: cited from earlier work

CC(=O)SCC(Cc1ccccc1)C(=O)NCC(=O)OCc1ccccc1 (racemic) [Racecadotril]
water solubility: low water solubility
